Test systems include CCRF-CEM leukemia; HCT-116 colon; HL-60(TB) leukemia; HOP-62 NSCLC; HT29 colon; K-562 leukemia; SK-OV-3 ovarian; SNB-75 CNS; SR leukemia; SW-620 colon.
What all share (test): NCI tumour cell line growth inhibition, 48 h

Consider nine compounds from PubChem BioAssay (NCI).

SMILES strings stand for the structures. “And” between values parts separate entries of the source, which are not always exact repeats. Identical values can stand only once.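 All cell lines were grown in 96-well plates and treated with compound for 48 hours. The concentration for 50% growth inhibition is given as GI50. TGI is the concentration that stops growth completely.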

For the compound `COC1/C=C/OC2(C)Oc3c(C)c(O)c4c(O)c(c(/C=N/N(c5ccccc5)c5ccccc5)c(O)c4c3C2=O)NC(=O)C(C)=C/C=C/C(C)C(O)C(C)C(O)C(C)C(OC(C)=O)C1C` (stereo not given), the GI50 in the experiment with CCRF-CEM leukemia is 1.58 µM; in the experiment with HCT-116 colon, 0.858 µM; in the experiment on HL-60(TB) leukemia it was 1.6 µM; in the experiment on HOP-62 NSCLC, 3.41 µM; in the experiment with HT29 colon, 1.1 µM; in the experiment with K-562 leukemia it was 1.59 µM. For the same compound, the GI50 was 6.38 µM in the experiment with SK-OV-3 ovarian, 1.66 µM in the experiment on SNB-75 CNS, 1.4 µM in the experiment on SR leukemia and 1.05 µM in the experiment with SW-620 colon. The TGI with CCRF-CEM leukemia came to 6.62 µM; in the experiment with HCT-116 colon, 1.76 µM; in the experiment on HL-60(TB) leukemia it was 3.58 µM; in the experiment on HOP-62 NSCLC, 10.3 µM; in the experiment with HT29 colon, 2.63 µM; with K-562 leukemia, 5.69 µM. The TGI with SK-OV-3 ovarian is 12.9 µM; with SNB-75 CNS, 7.18 µM; in the experiment with SR leukemia, 3.39 µM; with SW-620 colon it was 2.6 µM.
With `COC(=O)c1cc2c([nH]c3ccccc32)c(-c2nc3ccccc3cc2CO)n1`, the GI50 with CCRF-CEM leukemia is 25.5 µM; in the experiment with HCT-116 colon, 7.93 µM; in the experiment on HL-60(TB) leukemia, 24.9 µM; in the experiment with HT29 colon, more than 100 µM; in the experiment with K-562 leukemia, more than 100 µM; with SK-OV-3 ovarian, 55.9 µM. Also, the GI50 in the experiment with SNB-75 CNS was 40.1 µM; in the experiment on SR leukemia, more than 100 µM; in the experiment on SW-620 colon, more than 100 µM. In addition, the TGI is more than 100 µM in the experiment with CCRF-CEM leukemia; more than 100 µM with HCT-116 colon; 50.2 µM in the experiment on HL-60(TB) leukemia; more than 100 µM with HT29 colon; more than 100 µM in the experiment with K-562 leukemia; more than 100 µM in the experiment on SK-OV-3 ovarian. In addition, the TGI in the experiment with SNB-75 CNS, with SR leukemia and with SW-620 colon was more than 100 µM in each case.
Turning to `CC(=O)CCn1[nH]c(=O)c(Cl)c(Cl)c1=O`, the TGI with CCRF-CEM leukemia, in the experiment on HCT-116 colon, in the experiment with HL-60(TB) leukemia, with HOP-62 NSCLC, in the experiment with HT29 colon and in the experiment on K-562 leukemia was more than 100 µM in each case. Also, the TGI in the experiment on SNB-75 CNS was more than 100 µM; in the experiment on SR leukemia it was more than 100 µM; with SW-620 colon it was 45.3 µM.
`CC1=C(C(=O)Nc2ccccc2C)C(c2ccccc2O)C(C(=O)Nc2ccccc2C)=C(C)N1`: the TGI in the experiment with CCRF-CEM leukemia was more than 100 µM; in the experiment with HCT-116 colon, 36.9 µM; with HL-60(TB) leukemia, 61.2 µM; in the experiment with HOP-62 NSCLC it was 45.8 µM; with HT29 colon, 64.3 µM; in the experiment on K-562 leukemia, more than 100 µM. The TGI is 65.8 µM with SNB-75 CNS, 50.8 µM with SR leukemia and more than 100 µM in the experiment with SW-620 colon.
Consider `CN(C)c1ccc2cc3c(cc2c1)Oc1ccccc1N3.[Cl][Zn][Cl]`, for which the GI50 in the experiment with CCRF-CEM leukemia is 3.26 µM; in the experiment with HCT-116 colon, 2.04 µM; in the experiment on HL-60(TB) leukemia, 2.61 µM; in the experiment on HT29 colon, 4.09 µM; with K-562 leukemia it was 3.05 µM; in the experiment with SK-OV-3 ovarian, 17 µM. For the same compound, the GI50 in the experiment with SNB-75 CNS is 11.4 µM; in the experiment on SR leukemia it was 3.15 µM. Also, the TGI with CCRF-CEM leukemia is 9.71 µM; in the experiment with HCT-116 colon, 4.34 µM; in the experiment with HL-60(TB) leukemia it was 7.3 µM; in the experiment with HT29 colon, more than 100 µM; with K-562 leukemia, more than 100 µM; with SK-OV-3 ovarian, 33.3 µM. The TGI is 24.2 µM in the experiment with SNB-75 CNS and more than 100 µM in the experiment with SR leukemia.
On to `O=C1NC(c2cccc3ccccc23)Nc2ccccc21` (stereo not given), for which the GI50 is 0.0296 µM in the experiment with CCRF-CEM leukemia; 0.00675 µM in the experiment on HL-60(TB) leukemia; 0.0317 µM with HOP-62 NSCLC; 0.0256 µM and 0.0306 µM with HT29 colon; 0.00758 µM with K-562 leukemia; 0.0316 µM in the experiment with SK-OV-3 ovarian. Besides, the GI50 in the experiment with SR leukemia is 0.0106 µM; with SW-620 colon, 0.0203 µM. Further, the TGI in the experiment on CCRF-CEM leukemia is 0.538 µM; with HL-60(TB) leukemia, 0.0391 µM and 0.0342 µM; in the experiment on HOP-62 NSCLC it was 29.6 µM; in the experiment with HT29 colon, 1.14 µM and 0.203 µM; in the experiment with SK-OV-3 ovarian, 0.252 µM; in the experiment with SNB-75 CNS, 35.9 µM. In addition, the TGI in the experiment on SW-620 colon is more than 56.6 µM.
For `COc1cc(C(=O)c2cnc(-c3ccc4cc[nH]c4c3)[nH]2)cc(OC)c1OC`, the GI50 was 0.0374 µM with CCRF-CEM leukemia; 0.0332 µM in the experiment with HCT-116 colon; 0.0224 µM with HL-60(TB) leukemia; 0.0354 µM with HOP-62 NSCLC; 0.0316 µM in the experiment on HT29 colon; 0.0173 µM with K-562 leukemia. In addition, the GI50 in the experiment with SK-OV-3 ovarian was 0.0358 µM; in the experiment on SR leukemia, 0.0302 µM; with SW-620 colon, 0.0398 µM. Also, the TGI with CCRF-CEM leukemia was more than 44.6 µM; in the experiment with HCT-116 colon it was 2.23 µM; with HL-60(TB) leukemia it was 0.0535 µM; in the experiment on HOP-62 NSCLC, 6.5 µM; in the experiment with HT29 colon, 0.108 µM; in the experiment with K-562 leukemia, 8.74 µM. Besides, the TGI was determined as 1.93 µM in the experiment with SK-OV-3 ovarian, 23.8 µM with SR leukemia and 21.7 µM in the experiment with SW-620 colon.
Turning to `COc1ccccc1-c1ccc2c(N)c(C(=O)c3ccc4c(c3)OCO4)sc2n1`, the GI50 in the experiment with CCRF-CEM leukemia was 5.27 µM; in the experiment with HCT-116 colon, 3.68 µM; in the experiment on HL-60(TB) leukemia, 4.83 µM; in the experiment with HOP-62 NSCLC, 3.52 µM; in the experiment on K-562 leukemia it was 3.74 µM; in the experiment with SK-OV-3 ovarian it was 5.97 µM. Besides, the GI50 in the experiment on SNB-75 CNS is 3.27 µM; in the experiment on SR leukemia, 2.99 µM; in the experiment with SW-620 colon, 4.34 µM. Moreover, the TGI in the experiment on CCRF-CEM leukemia was more than 100 µM; with HCT-116 colon it was 15 µM; in the experiment on HL-60(TB) leukemia it was more than 100 µM; in the experiment on HOP-62 NSCLC it was 14.7 µM; in the experiment on K-562 leukemia it was more than 100 µM; with SK-OV-3 ovarian it was 18.2 µM. Besides, the results for the TGI in the experiment on SNB-75 CNS, in the experiment with SR leukemia and with SW-620 colon were 15.6 µM, 31.1 µM and more than 100 µM, respectively.
For `CC[C@@]1(O)C(=O)OCc2c1cc1n(c2=O)Cc2cc3cccc(N)c3nc2-1`, the GI50 in the experiment on CCRF-CEM leukemia was 1.07 µM; with HCT-116 colon, 16.8 µM; in the experiment with HL-60(TB) leukemia, 3.52 µM; in the experiment on HOP-62 NSCLC, 2.36 µM; in the experiment on HT29 colon it was more than 100 µM; in the experiment on K-562 leukemia, more than 100 µM. The GI50 in the experiment with SK-OV-3 ovarian was 5.13 µM; with SNB-75 CNS, 2.72 µM; in the experiment with SR leukemia, 0.478 µM. Also, the TGI in the experiment with CCRF-CEM leukemia is more than 100 µM; in the experiment with HCT-116 colon, more than 100 µM; in the experiment with HL-60(TB) leukemia it was more than 100 µM; in the experiment on HOP-62 NSCLC it was 6.24 µM; in the experiment with HT29 colon, more than 100 µM; with K-562 leukemia, more than 100 µM. In addition, the TGI with SK-OV-3 ovarian worked out at 29.7 µM; in the experiment on SNB-75 CNS it was 16.1 µM.
